Reference: ChEMBL document CHEMBL1137126, “Aza-boronic acids as non-beta-lactam inhibitors of AmpC-beta-lactamase” (Bioorg Med Chem Lett, 2004)
pKi: −log10 of the molar value. Converted amounts (≈) assume the structure as drawn.

Columns and labels:
[1] = molecular target: Beta-lactamase (Escherichia coli K-12, UniProt P00811); test: Apparent inhibition constant against Escherichia coli AmpC beta-lactamase
[2] = tested on: Escherichia coli; test: Minimum inhibitory concentration of compound against Escherichia coli K12AmpC-Ent
[3] = tested on: Escherichia coli; test: Minimum inhibitory concentration of compound against Escherichia coli derepressed
[4] = tested on: Enterobacter cloacae; test: Minimum inhibitory concentration of compound against Enterobacter cloacae derepressed 12991 ED; format: functional
[5] = tested on: Citrobacter freundii; test: Minimum inhibitory concentration of compound against Citrobacter freundii derepressed 91/98-2; format: functional
[6] = tested on: Pseudomonas aeruginosa; test: Minimum inhibitory concentration of compound against Pseudomonas aeruginosa derepressed 88/98; format: functional

Sequence of Beta-lactamase (P00811 whole entry): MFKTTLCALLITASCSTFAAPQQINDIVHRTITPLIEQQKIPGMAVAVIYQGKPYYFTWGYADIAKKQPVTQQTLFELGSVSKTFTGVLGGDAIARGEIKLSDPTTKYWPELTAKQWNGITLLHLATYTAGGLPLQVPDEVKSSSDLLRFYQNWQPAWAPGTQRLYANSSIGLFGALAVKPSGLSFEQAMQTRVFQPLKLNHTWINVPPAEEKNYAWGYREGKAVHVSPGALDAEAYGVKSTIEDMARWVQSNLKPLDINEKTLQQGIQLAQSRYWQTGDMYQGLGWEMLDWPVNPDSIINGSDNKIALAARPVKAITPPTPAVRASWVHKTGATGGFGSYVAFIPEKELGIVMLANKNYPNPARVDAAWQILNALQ

## OB(O)c1cccc(/N=N/c2ccc(O)cc2)c1
[1]
  pKi: 6.15

## OB(O)c1cccc(/N=N/c2ccc(/N=N/c3c(O)ccc4ccccc34)cc2O)c1
[1]
  pKi: 5.74

## OB(O)c1cccc(/N=N/c2c(O)cc(O)c3ccccc23)c1
[1]
  pKi: 6.35

## OB(O)c1cccc(/N=N/c2cc(Cl)c(O)c(Cl)c2)c1
[1]
  pKi: 5.52

## OB(O)c1cccc(/N=N/c2ccccc2O)c1
[1]
  pKi: 5.46

## OB(O)c1cccc(/N=N/c2ccc(/N=N/c3c(O)cc(O)c4ccccc34)cc2O)c1
[1]
  pKi: 6.15

## O=[N+]([O-])c1cccc(/N=N/c2cccc(B(O)O)c2)c1O
[1]
  pKi: 5.82

## OB(O)c1cccc(/N=N/c2c(O)ccc3ccccc23)c1
[1]
  pKi: 6.52

## Nc1cc(B(O)O)ccc1/N=N/c1cccc(B(O)O)c1
[1]
  pKi: 5.57

## O=S(=O)(O)c1cc(S(=O)(=O)c2cccc(/N=N/c3cccc(B(O)O)c3)c2)cs1
[1]
  pKi: 5.70

## OB(O)c1cccc(/N=N/c2ccc(O)c3ccccc23)c1
[1]
  pKi: 6.05

## O=S(=O)(O)c1cc(/N=N/c2cccc(B(O)O)c2)c(O)c2ccccc12
[1]
  pKi: 5.30

## Cc1noc(C)c1/N=N/c1cccc(B(O)O)c1
[1]
  pKi: 6.00

## OB(O)c1cc(/N=N/c2ccc(Br)cc2)ccc1O
[1]
  pKi: 5.52

## CC(C)(O/N=C(\C(=O)N[C@@H]1C(=O)N2C(C(=O)[O-])=C(C[n+]3ccccc3)CS[C@H]12)c1csc(N)n1)C(=O)O [CEFTAZIDIME]
[2]
  MIC: 64 µg/mL (≈ 117 µM)
[3]
  MIC: 128 µg/mL (≈ 234 µM)
[4]
  MIC: 256 µg/mL (≈ 468 µM)
[5]
  MIC: 64 µg/mL (≈ 117 µM)
[6]
  MIC: 128 µg/mL (≈ 234 µM)
